Tests used:
Settings in all cases: stereoisomer not certain
[1] = RP, Waters CORTECS T3, 100 × 2.1 mm, 2.7 µm, 0.2 mL/min, estimated dead time 1.1 min; A: water + 0.1% formic acid, pH 3; B: methanol + 0.1% formic acid, pH 3; gradient (min/%B) 0/0 1/0 6/5 30/100 35/100 35.1/0 40/0
[2] = RP, Waters CORTECS T3, 100 × 2.1 mm, 2.7 µm, 0.25 mL/min, estimated dead time 0.88 min; A: water + 0.1% formic acid, pH 3; B: methanol + 0.1% formic acid, pH 3; gradient (min/%B) 0/0 1/0 6/5 30/100 35/100 35.1/0 40/0
[3] = RP, Waters CORTECS T3, 100 × 2.1 mm, 2.7 µm, 0.3 mL/min, estimated dead time 0.73 min; A: water + 0.1% formic acid, pH 3; B: methanol + 0.1% formic acid, pH 3; gradient (min/%B) 0/5 5/5 25/100 30/100 30.1/5 35/5
[4] = RP, Waters CORTECS T3, 100 × 2.1 mm, 2.7 µm, 0.3 mL/min, estimated dead time 0.73 min; A: water + 0.1% formic acid, pH 3; B: methanol + 0.1% formic acid, pH 3; gradient (min/%B) 0/0 5/0 25/100 30/100 30.1/0 35/0
[5] = RP, Waters CORTECS T3, 100 × 2.1 mm, 2.7 µm, 0.1 mL/min, estimated dead time 2.2 min; A: water + 0.1% formic acid, pH 3; B: methanol + 0.1% formic acid, pH 3; gradient (min/%B) 0/0 1/0 6/5 30/100 35/100 35.1/0 40/0
[6] = RP, Waters CORTECS T3, 100 × 2.1 mm, 2.7 µm, 0.15 mL/min, estimated dead time 1.5 min; A: water + 0.1% formic acid, pH 3; B: methanol + 0.1% formic acid, pH 3; gradient (min/%B) 0/0 1/0 6/5 30/100 35/100 35.1/0 40/0
[7] = RP, Thermo Scientific Hypercarb, 150 × 2.1 mm, 5 µm, 0.1 mL/min, estimated dead time 3.3 min; A: water + 0.1% formic acid, pH 3; B: methanol + 0.1% formic acid, pH 3; gradient (min/%B) 0/5 5/5 20/100 35/100 35.1/5 45/5
[8] = RP, Waters CORTECS T3, 100 × 2.1 mm, 2.7 µm, 0.3 mL/min, estimated dead time 0.73 min; A: water + 0.1% formic acid, pH 3; B: methanol + 0.1% formic acid, pH 3; gradient (min/%B) 0/5 5/5 25/95 25.1/100 35/100 35.1/5 45/5
[9] = RP, Waters CORTECS T3, 100 × 2.1 mm, 2.7 µm, 0.1 mL/min, estimated dead time 2.2 min; A: water + 0.1% formic acid, pH 3; B: methanol + 0.1% formic acid, pH 3; gradient (min/%B) 0/5 5/5 25/95 25.1/100 35/100 35.1/5 45/5
[10] = RP, Waters CORTECS T3, 100 × 2.1 mm, 2.7 µm, 0.3 mL/min, estimated dead time 0.73 min; A: water + 0.1% formic acid, pH 3; B: methanol + 0.1% formic acid, pH 3; gradient (min/%B) 0/0 1/0 6/5 30/100 35/100 35.1/0 40/0
[11] = RP, Waters ACQUITY UPLC BEH C18, 100 × 2.1 mm, 1.7 µm, 0.1 mL/min, estimated dead time 2.2 min; A: water + 0.1% formic acid, pH 3; B: methanol + 0.1% formic acid, pH 3; gradient (min/%B) 0/5 5/5 25/100 30/100 30.1/5 35/5
[12] = RP, Waters CORTECS T3, 100 × 2.1 mm, 2.7 µm, 0.2 mL/min, estimated dead time 1.1 min; A: water + 0.045% formic acid + 0.11% ammonium hydroxide, pH 7; B: methanol; gradient (min/%B) 0/5 5/5 25/95 25.1/100 35/100 35.1/5 45/5
[13] = RP, Waters ACQUITY UPLC BEH C18, 100 × 2.1 mm, 1.7 µm, 0.2 mL/min, estimated dead time 1.1 min; A: water + 0.025% formic acid + 20 mM ammonium acetate + 0.055% ammonium hydroxide, pH 7; B: methanol; gradient (min/%B) 0/5 5/5 25/100 30/100 30.1/5 35/5
[14] = RP, Waters ACQUITY UPLC BEH C18, 100 × 2.1 mm, 1.7 µm, 0.1 mL/min, estimated dead time 2.2 min; A: water + 0.045% formic acid + 0.11% ammonium hydroxide, pH 7; B: methanol; gradient (min/%B) 0/5 5/5 25/95 25.1/100 35/100 35.1/5 45/5
[15] = RP, Waters CORTECS T3, 100 × 2.1 mm, 2.7 µm, 0.25 mL/min, estimated dead time 0.88 min; A: water + 0.1% formic acid, pH 3; B: methanol + 0.1% formic acid, pH 3; gradient (min/%B) 0/5 5/5 25/95 25.1/100 35/100 35.1/5 45/5
[16] = RP, Waters ACQUITY UPLC BEH C18, 100 × 2.1 mm, 1.7 µm, 0.2 mL/min, estimated dead time 1.1 min; A: water + 0.1% formic acid, pH 3; B: methanol + 0.1% formic acid, pH 3; gradient (min/%B) 0/5 5/5 25/100 30/100 30.1/5 35/5
[17] = RP, Waters CORTECS T3, 100 × 2.1 mm, 2.7 µm, 0.2 mL/min, estimated dead time 1.1 min; A: water + 0.1% formic acid, pH 3; B: methanol + 0.1% formic acid, pH 3; gradient (min/%B) 0/0 1/0 6/5 30/100 35/100 35.1/0 40/0; remark: listed apart in the source

Row | SMILES | LC retention time [1] | LC retention time [2] | LC retention time [3] | LC retention time [4] | LC retention time [5] | LC retention time [6] | LC retention time [7] | LC retention time [8] | LC retention time [9] | LC retention time [10] | LC retention time [11] | LC retention time [12] | LC retention time [13] | LC retention time [14] | LC retention time [15] | LC retention time [16] | LC retention time [17]
1 | O=C(O)Cc1c[nH]c2ccc(O)cc12 [5-HYDROXYINDOLEACETATE] | 11.5 min | 10.8 min | 8.56 min | 10 min | 10.1 min | 12.9 min | 30.8 min | 8.59 min | 13.4 min | 10.1 min | 13.3 min |  |  |  |  |  | 
2 | CC(=O)OCC(=O)C1(O)CCC2C3CCC4=CC(=O)CCC4(C)C3C(O)CC21C (stereo unspecified) [CORTISOL 21-ACETATE] | 22.4 min | 21.6 min | 18.1 min | 18.6 min | 19.9 min | 23.6 min |  | 18.6 min | 22.9 min | 21.1 min | 22.3 min | 19.9 min | 19.4 min | 22.9 min |  |  | 
3 | O=CCc1c[nH]c2ccccc12 [INDOLE-3-ACETALDEHYDE] | 12.1 min | 11.3 min | 9.2 min |  | 10.6 min | 13.3 min |  | 9.27 min | 13.8 min | 10.8 min | 13.6 min | 10.7 min | 10.6 min | 13.7 min |  |  | 
4 | Nc1ccccc1O [2-AMINOPHENOL] |  |  |  |  |  |  |  |  | 2.8 min |  |  |  |  |  |  |  | 
5 | O=C(O)C(O)C(O)C(O)C(O)COP(=O)(O)O (stereo unspecified) [6-PHOSPHOGLUCONIC ACID] |  |  |  |  |  |  |  |  |  |  |  |  |  |  | 1.08 min |  | 
6 | NC(CCSSCCC(N)C(=O)O)C(=O)O (stereo unspecified) [HOMOCYSTINE] |  | 1.09 min |  |  |  | 1.78 min | 14 min | 0.9 min |  |  | 2.74 min |  |  |  |  | 1.38 min | 1.35 min
7 | NC(=O)[C@@H](N)Cc1c[nH]c2ccccc12 [L-TRYPTOPHANAMIDE] | 9.28 min | 8.41 min | 4.89 min | 8.34 min | 7.08 min | 10.8 min |  |  | 11.1 min | 7.63 min | 11.2 min | 9.97 min | 10.1 min | 14.1 min |  |  | 
8 | N[C@@H](Cc1ccccc1)C(=O)O [L-PHENYLALANINE] | 15.3 min | 14.4 min | 11.8 min | 12.8 min | 13.6 min | 16.7 min |  | 12 min | 17.2 min | 13.6 min | 17.3 min |  |  |  |  |  | 
9 | Cc1cnc(=O)[nH]c1N [5-METHYLCYTOSINE] |  | 1.06 min |  |  |  |  | 16.9 min |  |  | 0.9 min | 2.71 min | 1.35 min | 2.21 min |  |  |  | 
10 | CC=CC=CC(=O)O [SORBATE] |  |  |  |  |  |  |  |  | 4.88 min |  |  |  |  |  |  |  | 
11 | CCCCC(CC)COC(=O)c1ccccc1C(=O)OCC(CC)CCCC (stereo unspecified) [BIS(2-ETHYLHEXYL)PHTHALATE] |  | 30.4 min | 25.4 min | 25.5 min | 26.7 min | 32.3 min |  | 26.4 min |  | 30 min | 30 min | 26.7 min |  | 30.8 min |  |  | 
12 | CCC=CCC1C(=O)CCC1CC(=O)OC (stereo unspecified) [METHYL JASMONATE] |  |  |  |  |  | 24 min |  |  | 23.6 min |  | 23.2 min | 20.3 min | 20 min | 23.9 min |  |  | 
13 | Cn1cnc(=N)c2[nH]cnc21 [3-METHYLADENINE] | 1.34 min | 1.09 min |  | 0.89 min |  | 1.78 min | 24.5 min |  |  |  | 2.69 min | 3.8 min | 3.62 min | 2.75 min |  |  | 
14 | COC(=O)Cc1c[nH]c2ccccc12 [METHYL INDOLE-3-ACETATE] | 19.3 min |  | 15.3 min | 16 min | 17.2 min | 20.6 min |  | 15.7 min | 20.5 min | 17.6 min | 20.5 min | 17.2 min |  | 20.9 min |  |  | 
15 | CCCCCCCCC=CCCCCCCCC(=O)OCC(O)CO (racemic) [1-OLEOYL-RAC-GLYCEROL] |  |  | 24.6 min | 24.8 min | 26.2 min |  |  | 25.6 min |  | 29 min | 29.3 min | 26.2 min | 26.3 min | 30.2 min |  |  | 
16 | CCOC(=O)Cc1c[nH]c2ccccc12 [ETHYL 3-INDOLEACETATE] | 21.1 min |  | 16.9 min | 17.5 min | 18.8 min | 22.4 min |  | 17.4 min | 22.1 min | 19.6 min |  | 18.9 min |  | 22.5 min |  |  | 
17 | Cc1ncc(CO)c(CN)c1O [PYRIDOXAMINE] |  |  |  |  |  |  | 16.2 min |  |  |  |  | 1.35 min | 1.8 min | 2.75 min |  |  | 
18 | COc1cc(C(O)C(=O)O)ccc1O (stereo unspecified) [3-METHOXY-4-HYDROXYMANDELATE] |  |  |  |  |  |  |  |  |  |  |  |  |  |  | 2.78 min |  | 
19 | O=C(O)C=Cc1cnc[nH]1 [UROCANATE] |  | 1.06 min |  | 0.91 min |  | 1.8 min |  |  |  | 0.9 min | 2.71 min |  | 1.39 min |  |  | 1.36 min | 
